From ChEMBL document CHEMBL1201862, “PubChem BioAssay data set” (2004)
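These data come from cells grown in 96-well plates and exposed to compound for 48 hours at five concentrations. Here, GI50 denotes the concentration required for 50% inhibition of growth.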 Activity calls are given as the source filed them. Cut-off read from the data, not from the text of the source: active = GI50 up to about 1.1 µM and inactive = higher.

Assays:
Test in all cases: NCI tumour cell line growth inhibition, 48 h
[1] = system: EKVX
[2] = system: HCT-116
[3] = system: HT-29
[4] = system: MDA-MB-231
[5] = system: MDA-MB-435
[6] = system: MOLT-4
[7] = system: NCI-H23
[8] = system: OVCAR-3
[9] = system: PC-3
[10] = system: RPMI-8226
[11] = system: RXF 393
[12] = system: SK-MEL-28
[13] = system: SK-MEL-5
[14] = system: SN12C
[15] = system: SW-620
[16] = system: U-251
[17] = system: UACC-257
[18] = system: UO-31
[19] = system: SK-OV-3

SMILES | GI50 [1] | GI50 [2] | GI50 [3] | GI50 [4] | GI50 [5] | GI50 [6] | GI50 [7] | GI50 [8] | GI50 [9] | GI50 [10] | GI50 [11] | GI50 [12] | GI50 [13] | GI50 [14] | GI50 [15] | GI50 [16] | GI50 [17] | GI50 [18] | GI50 [19]
CC(=O)OC1[C@H](n2ccnc2)C[C@H]2[C@@H]3CC=C4CC(N5CCCC5)CC[C@]4(C)[C@H]3CC[C@]12C (some centres not stated) | 70.1 µM (inactive) | 21 µM (inactive) | 5.35 µM (inactive) | 66.2 µM (inactive) | 23.8 µM (inactive) | 17.3 µM (inactive) | 60.3 µM (inactive) | 54.6 µM (inactive) | 34.4 µM (inactive) | 23.2 µM (inactive) | 11.7 µM (inactive) | 21.2 µM (inactive) | 33 µM (inactive) | 51.9 µM (inactive) | 54.1 µM (inactive) | 55.3 µM (inactive) | 18.8 µM (inactive) | 49.5 µM (inactive) | 
Cc1ccc(C(=O)/C=C2\Nc3ccccc3N=C2NC23CC4CC(CC(C4)C2)C3)cc1 |  | > 10 µM (inactive) | > 10 µM (inactive) | > 10 µM (inactive) | > 10 µM (inactive) | 7.8 µM (inactive) | > 10 µM (inactive) | > 10 µM (inactive) | > 10 µM (inactive) | > 10 µM (inactive) |  | > 10 µM (inactive) | > 10 µM (inactive) | > 10 µM (inactive) | 7.24 µM (inactive) | > 10 µM (inactive) | > 10 µM (inactive) |  | > 10 µM (inactive)
N#CC(c1ccccc1)c1cccc2ccccc12 (configuration not stated) | 37.8 µM (inactive) | 65 µM (inactive) | 43.2 µM (inactive) | 48.6 µM (inactive) | 20.2 µM (inactive) | 17.5 µM (inactive) | 42.1 µM (inactive) | 29.9 µM (inactive) | 22.5 µM (inactive) | 25.7 µM (inactive) |  | 69.7 µM (inactive) | 18.2 µM (inactive) | 68.4 µM (inactive) | 38.4 µM (inactive) | 48.9 µM (inactive) | 24.4 µM (inactive) | 28.2 µM (inactive) | 
c1ccc2c(c1)nc1ccccn12 | > 100 µM (inactive) | > 100 µM (inactive) | > 100 µM (inactive) |  | > 100 µM (inactive) | > 100 µM (inactive) | > 100 µM (inactive) | > 100 µM (inactive) | > 100 µM (inactive) | > 100 µM (inactive) | > 100 µM (inactive) | > 100 µM (inactive) | > 100 µM (inactive) | > 100 µM (inactive) | > 100 µM (inactive) | > 100 µM (inactive) | > 100 µM (inactive) | > 100 µM (inactive) | > 100 µM (inactive)
Cn1c(C(C#N)c2cc(Cl)ncn2)nc2ccccc21 (configuration not stated) | > 100 µM (inactive) | > 100 µM (inactive) | > 100 µM (inactive) | > 100 µM (inactive) | > 100 µM (inactive) | > 100 µM (inactive) | > 100 µM (inactive) | > 100 µM (inactive) |  | > 100 µM (inactive) | > 100 µM (inactive) | > 100 µM (inactive) | > 100 µM (inactive) | > 100 µM (inactive) | > 100 µM (inactive) | > 100 µM (inactive) | > 100 µM (inactive) | > 100 µM (inactive) | > 100 µM (inactive)
CCOC(=O)C1=NN(c2ccccc2)C(=O)/C1=C\NC(=S)C(N)=S | 27.2 µM (inactive) | 20.5 µM (inactive) | 41.8 µM (inactive) | 65.2 µM (inactive) | 33.8 µM (inactive) | 26.4 µM (inactive) | 87.1 µM (inactive) | 38.5 µM (inactive) | 47.5 µM (inactive) |  | 29.2 µM (inactive) | 39.8 µM (inactive) | 19.6 µM (inactive) | 37.8 µM (inactive) | 38.5 µM (inactive) | 42.3 µM (inactive) | 68.5 µM (inactive) | 19.2 µM (inactive) | 75.7 µM (inactive)
Nn1c(SCC(=O)NCc2ccccc2)nc2ccccc2c1=O | 64.3 µM (inactive) | 29.4 µM (inactive) | 45.4 µM (inactive) | 57.8 µM (inactive) | 45.8 µM (inactive) | 19.1 µM (inactive) | 82.8 µM (inactive) | 32.3 µM (inactive) | 54.7 µM (inactive) | 40.8 µM (inactive) | 34.1 µM (inactive) | 92.5 µM (inactive) | 41 µM (inactive) | > 100 µM (inactive) | 57 µM (inactive) | 88.9 µM (inactive) | 58.2 µM (inactive) | 43.9 µM (inactive) | 
COC(=O)C(Nc1ccc(OC)cc1)c1ccccc1 (configuration not stated) | > 100 µM (inactive) | > 100 µM (inactive) | > 100 µM (inactive) |  | > 100 µM (inactive) | > 100 µM (inactive) | > 100 µM (inactive) | > 100 µM (inactive) | > 100 µM (inactive) | 83.9 µM (inactive) |  | > 100 µM (inactive) | > 100 µM (inactive) | > 100 µM (inactive) | > 100 µM (inactive) |  | > 100 µM (inactive) | > 100 µM (inactive) | 
CCOP(=O)(OCC)[C@H]1OC(C)(C)O[C@@H]1CO | > 100 µM (inactive) | > 100 µM (inactive) | > 100 µM (inactive) | > 100 µM (inactive) | > 100 µM (inactive) | > 100 µM (inactive) | > 100 µM (inactive) | > 100 µM (inactive) | > 100 µM (inactive) | > 100 µM (inactive) |  | > 100 µM (inactive) | > 100 µM (inactive) | > 100 µM (inactive) | > 100 µM (inactive) | > 100 µM (inactive) | > 100 µM (inactive) |  | > 100 µM (inactive)
Cc1cc(C)c2c(n1)S(=O)(=O)N(CCCN1CCN(c3cccc(Cl)c3)CC1)C(C(=O)c1ccccc1)=C2O | 26 µM (inactive) | 24.2 µM (inactive) | 30.8 µM (inactive) | 44.1 µM (inactive) | 27 µM (inactive) | 7.82 µM (inactive) | 28.4 µM (inactive) | 22.8 µM (inactive) | 30.8 µM (inactive) |  |  | 44.4 µM (inactive) | 21.6 µM (inactive) | 20 µM (inactive) | 31.8 µM (inactive) | 37.6 µM (inactive) | 19.3 µM (inactive) | 19.2 µM (inactive) | 33.7 µM (inactive)
COc1ccc(C2CC(=O)CC(c3ccc(OC)cc3)C23C(=O)NC(=O)NC3=O)cc1 (configuration not stated) | 32.9 µM (inactive) | 27.4 µM (inactive) | 33.2 µM (inactive) | 39.1 µM (inactive) | 22.7 µM (inactive) | 19 µM (inactive) | 23.4 µM (inactive) | 19.3 µM (inactive) | 33.9 µM (inactive) |  | 45.9 µM (inactive) | 17.2 µM (inactive) | 25 µM (inactive) | 46.8 µM (inactive) | 18.7 µM (inactive) | 57.8 µM (inactive) | 38.1 µM (inactive) | 31.6 µM (inactive) | 
O=C(O)CN1C=C(C(=O)c2cc3ccccc3n2S(=O)(=O)c2ccccc2)CCC1 | 54.8 µM (inactive) | 57.3 µM (inactive) | 50 µM (inactive) | > 100 µM (inactive) | 43.5 µM (inactive) | 38.5 µM (inactive) | 50.6 µM (inactive) | 51.9 µM (inactive) | 50.4 µM (inactive) |  | 54.5 µM (inactive) | > 100 µM (inactive) | 24.9 µM (inactive) |  | 69.2 µM (inactive) | 76.7 µM (inactive) | > 100 µM (inactive) | 30.4 µM (inactive) | > 10 µM (inactive)
C/C=C1/CN2CCC3(O)c4ccccc4N4C=C(C(=O)OC)C1CC2C43O (configuration not stated) | > 100 µM (inactive) | > 100 µM (inactive) | > 100 µM (inactive) | > 10 µM (inactive) | > 100 µM (inactive) | 84.1 µM (inactive) | > 100 µM (inactive) | > 100 µM (inactive) | > 100 µM (inactive) | > 100 µM (inactive) |  | > 100 µM (inactive) | > 100 µM (inactive) | > 100 µM (inactive) | > 100 µM (inactive) | > 100 µM (inactive) | > 100 µM (inactive) | > 100 µM (inactive) | > 100 µM (inactive)
O=C(NNC(=O)c1ccccc1O)c1ccccc1O | 1.17 µM (inactive) | 0.0446 µM (active) | 6.71 µM (inactive) | 5.24 µM (inactive) | < 0.01 µM (active) | 0.0385 µM (active) | 0.105 µM (active) | 0.258 µM (active) |  | 0.326 µM (active) | 0.0514 µM (active) | 22.4 µM (inactive) | 0.607 µM (active) | 0.0792 µM (active) | 0.108 µM (active) | 0.116 µM (active) | 0.376 µM (active) | 0.022 µM (active) | 0.341 µM (active)
CCC[C@H]1C(=O)N=C(N)N1C(=O)OCc1ccccc1 | > 100 µM (inactive) | > 100 µM (inactive) | > 100 µM (inactive) | > 100 µM (inactive) | > 100 µM (inactive) | > 100 µM (inactive) | > 100 µM (inactive) | > 100 µM (inactive) | > 100 µM (inactive) | > 100 µM (inactive) | > 100 µM (inactive) | > 100 µM (inactive) | > 100 µM (inactive) | > 100 µM (inactive) | > 100 µM (inactive) | > 100 µM (inactive) | > 100 µM (inactive) | 86.9 µM (inactive) | 
COc1cc(C=O)ccc1O [VANILLIN] | > 100 µM (inactive) | > 100 µM (inactive) | > 100 µM (inactive) | > 100 µM (inactive) | > 100 µM (inactive) | > 100 µM (inactive) | > 100 µM (inactive) | > 100 µM (inactive) | > 100 µM (inactive) | > 100 µM (inactive) |  | > 100 µM (inactive) | > 100 µM (inactive) | > 100 µM (inactive) | > 100 µM (inactive) | > 100 µM (inactive) | > 100 µM (inactive) | > 100 µM (inactive) | 
